The subject of assay [1] is arachidonic acid-induced ear swelling. Nature of the assay: topical arachidonic acid-induced ear swelling model in mice. The assay is classed as in vivo. The conditions noted are these: inhibition of ear swelling vs vehicle, male ICR mice; topical application 30 min before and 15 min after arachidonic acid; measured at 90 minutes after arachidonic acid application. As to the method: The test compound, indomethacin (positive control), and vehicle were evaluated for anti-inflammatory activity in a topical arachidonic acid-induced ear swelling model in mice.
Male ICR mice weighing 22 ± 2 g were used and randomly divided; the test compound and vehicle control had 10 mice, and indomethacin had 5 mice. Arachidonic Acid (0.5 mg in 20 µl of acetone:ethanol/1:1) was applied topically to the anterior and posterior surfaces of the right ear of each mouse. Test substances and vehicle, as listed in Table 2 were similarly applied 30 min before and 15 min after arachidonic acid application. The thickness of the right ear and the left ear was measured and the difference calculated as an indication of the inflammation in the right ear. Ear swelling was measured by a Dyer model micrometer gauge at 60 and 90 minutes after arachidonic acid application as an index of inflammation. Percent inhibition was calculated according to the formula: Ic - It/Ic x 100, where Ic and It refers to increase of ear thickness (mm) in control and treated mice, respectively. ANOVA and Dunnett's test were employed to ascertain significant difference between vehicle control and treated groups. Significance is set at P<0.05 level.

Assay [2] deals with tail flick reaction to heat. The experiment in a line: tail flick test (49°C water bath) in mice. The following applies: mouse, in vivo. Here is the method: The tail flick test is a test of the pain response in animals. The tail flick test is used in basic pain research and to measure the effectiveness of analgesics, by observing the tail flick reaction to heat in an animal. This test assesses the nociceptive response to a local pain stimulus, and the ability of a drug to inhibit this response.
Vehicle control (DMSO) and test compound 3,4-bis-benzylsulfonylbutanenitrile in DMSO were administered by oral gavage to mice with a volume of 5 mL/kg, immediately prior to testing, at time zero. The test compound was administered at a dosage of 500 mg/kg in DMSO. Positive control morphine in water was administered at time zero by subcutaneous injection at 8 mg/kg to mice. […] The purpose of morphine is not to serve as a comparison with the test compound. Each group had 10 mice.
The response of mice to heat stimulus was evaluated by measuring the time of tail-flick or tail-flick latency from 49°C water bath. Briefly, the animal was held with its tail hanging down. Approximately 5.08 cm (2 inches) of the tail was immersed in a beaker of water at 38±1 °C for about 30 seconds, and this was done twice to acclimate the animal to the procedure.
Subsequently, approximately 5.08 cm (2 inches) of the tail was immersed in a beaker of water at 49±1 °C, at which point a timer was started. […]

Take `N#CCC(CS(=O)(=O)Cc1ccccc1)S(=O)(=O)Cc1ccccc1` (centres unmarked) [3,4-bis-benzylsulfonylbutanenitrile]: in assay [1], the % Inhibition (as a rule, the percentage by which the read-out fell short of the control) was 34%.

On to `CN1CC[C@]23c4c5ccc(O)c4O[C@H]2[C@@H](O)C=C[C@H]3[C@H]1C5` [morphine], for which the “tail flick latency compared with vehicle-treated mice” value in assay [2] is recorded as “not”.

The record behind these values is patent EP3048886B1, “3, 4-BIS-BENZYLSULFONYLBUTANENITRILE AND ITS PHARMACEUTICAL USE” (Olatec Therapeutics LLC, priority 2013, dated 2015).
